Data: US9814711B2, “Antitubercular composition comprising rifampicin, isoniazid, ethambutol and pyrazinamide and its process of preparation” (priority 2013, dated 2017)
Where a name gives a salt, the structure may show the parent alone.

Experiments:
[1] = Stability: active ingredient content of coated tablets, initial and after aging at 40° C. and 75% relative humidity; type: physicochemical
[2] = Dissolution time test (pH 6.8 phosphate buffer, 900 mL, paddle 100 rpm, HPLC); type: physicochemical; conditions: for % of dissolved actives at 45 min after beginning the Dissolution time test: pH 6.8 phosphate buffer 900 mL paddle 100 rpm
Protocol: The dissolution time of the actives can be measured by introducing one tablet (weight 1090 mg) in 900 mL of water at 37° C. buffered to pH 6.8 with a phosphate buffer wherein the medium is mixed with a paddle at 100 rpm. The phosphate buffer is prepared by dissolving 7 g of anhydrous dibasic sodium phosphate in 5 L of water, and adjusting with phosphoric acid to a pH of 6.8. The percentage of the actives dissolved at a given time can be measured by high performance liquid chromatography (HPLC).

[3] = coated tablet of Example 1, aging 1 month at 40° C. and 75% relative humidity
[4] = coated tablet of Example 1, aging 2 months at 40° C. and 75% relative humidity
[5] = coated tablet of Example 1, initial
[6] = coated tablet of Example 1, aged 1 month at 40° C. and 75% relative humidity
[7] = coated tablet of Example 1, aged 2 months at 40° C. and 75% relative humidity

| SMILES | percentage of active ingredient measured relative to the target quantity [1, 3] | percentage of active ingredient measured relative to the target quantity [1, 4] | percentage of active ingredient measured relative to the target quantity [1, 5] | % of dissolved actives at 45 min after beginning the Dissolution time test [2, 6] | % of dissolved actives at 45 min after beginning the Dissolution time test [2, 7] | % of dissolved actives at 45 min after beginning the Dissolution time test [2, 5] | cumulative percentage of active released ([2]; tablet of Example 1, 5 min) | cumulative percentage of active released ([2]; tablet of Example 1, 10 min) | cumulative percentage of active released ([2]; tablet of Example 1, 15 min) | cumulative percentage of active released ([2]; tablet of Example 1, 20 min) | cumulative percentage of active released ([2]; tablet of Example 1, 30 min) | cumulative percentage of active released ([2]; tablet of Example 1, 45 min) | cumulative percentage of active released ([2]; tablet of Example 1, 60 min) |
| --- | --- | --- | --- | --- | --- | --- | --- | --- | --- | --- | --- | --- | --- |
| NC(=O)c1cnccn1 [Pyrazinamide] | 101.2% | 100.5% | 101.3% | 102% | 102% | 102% | 90 | 101 | 102 | 102 | 102 | 102 | 102 |
| CC[C@@H](CO)NCCN[C@@H](CC)CO [Ethambutol HCl, Ethambutol Hydrochloride] | 100.3% | 101.4% | 100.6% | 100% | 99% | 100% | 84 | 99 | 99 | 99 | 99 | 99 | 99 |
| NNC(=O)c1ccncc1 [Isoniazid] | 97.8% | 98.20% | 100.0% | 98% | 100% | 98% | 86 | 99 | 100 | 100 | 100 | 100 | 100 |
